Measurements from patent US9505726B2, “Substituted biphenyl amides as P2X3 and P2X2/3 antagonists” (Roche Palo Alto LLC, priority 2009, dated 2016).

Target: T1, rat P2X3 receptor (Rattus norvegicus, UniProt P49654)
T1 construct: expressed in transfected cells; host or cells: CHO-K1
T1 sequence (P49654 1-397): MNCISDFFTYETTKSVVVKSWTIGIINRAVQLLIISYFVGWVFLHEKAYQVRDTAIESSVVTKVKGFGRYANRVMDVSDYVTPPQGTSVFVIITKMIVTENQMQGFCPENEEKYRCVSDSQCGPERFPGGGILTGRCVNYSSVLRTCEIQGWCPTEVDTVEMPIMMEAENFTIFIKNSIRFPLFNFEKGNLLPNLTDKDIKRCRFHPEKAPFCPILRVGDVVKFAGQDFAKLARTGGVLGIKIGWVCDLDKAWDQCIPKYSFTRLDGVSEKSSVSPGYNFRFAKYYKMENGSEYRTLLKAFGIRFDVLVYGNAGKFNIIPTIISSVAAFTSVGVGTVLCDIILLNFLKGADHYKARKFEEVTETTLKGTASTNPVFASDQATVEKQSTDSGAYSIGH
Experiment: P2X3 FLIPR (Fluorometric Imaging Plate Reader) assay
Assay type: cell-based
Settings: CHO-K1 cells transfected with cloned rat P2X3, agonist α,β-meATP 1 μM, Fluo-3 AM calcium fluorescence
Procedure: CHO-K1 cells were transfected with cloned rat P2X3 or human P2X2/3 receptor subunits and passaged in flasks. 18-24 hours before the FLIPR experiment, cells were released from their flasks, centrifuged, and resuspended in nutrient medium at 2.5×10^5 cells/ml. The cells were aliquoted into black-walled 96-well plates at a density of 50,000 cells/well and incubated overnight in 5% CO2 at 37° C. On the day of the experiment, cells were washed in FLIPR buffer (calcium- and magnesium-free Hank's balanced salt solution, 10 mM HEPES, 2 mM CaCl2, 2.5 mM probenecid; FB). Each well received 100 μl FB and 100 μl of the fluorescent dye Fluo-3 AM [2 μM final conc.]. After a 1 hour dye loading incubation at 37° C., the cells were washed 4 times with FB, and a final 75 μl/well FB was left in each well.
Test compounds (dissolved in DMSO at 10 mM and serially diluted with FB) or vehicle were added to each well (25 μl of a 4× solution) and allowed to equilibrate for 20 minutes at room temperature. The plates were then placed in the FLIPR and a baseline fluorescence measurement (excitation at 488 nm and emission at 510-570 nm) was obtained for 10 seconds before a 100 μl/well agonist or vehicle addition. The agonist was a 2X solution of α,β-meATP producing a final concentration of 1 μM (P2X3) or 5 μM (P2X2/3). Fluorescence was measured for an additional 2 minutes at 1 second intervals after agonist addition. A final addition of ionomycin (5 μM, final concentration) was made to each well of the FLIPR test plate to establish cell viability and maximum fluorescence of dye-bound cytosolic calcium. Peak fluorescence in response to the addition of α,β-meATP (in the absence and presence of test compounds) was measured and inhibition curves generated using nonlinear regression. PPADS, a standard P2X antagonist, was used as a positive control.

Compound	P2X3 (pIC50 values for the P2X3 receptor)	IC50 (read-out: P2X3 (pIC50 values for the P2X3 receptor) (converted))
Cc1ccc(-c2cc(C(=O)NC(C)c3cnccn3)cc(N(C)C(=O)C(C)C)c2)nc1 (centres unmarked) [Compound 70, 3-(Isobutyryl-methyl-amino)-5-(5-methyl-pyridin-2-yl)-N-(1-pyrazin-2-yl-ethyl)-benzamide]	8.11	
Cc1ccc(-c2cc(C(=O)NCc3cnccn3)cc(N(C)C(=O)C(C)C)c2)cc1 [Compound 62, 5-(Isobutyryl-methyl-amino)-4′-methyl-biphenyl-3-carboxylic acid (pyrazin-2-ylmethyl)-amide]	8.14	
CCN(C(=O)C(C)C)c1cc(C(=O)NC(C)c2cnccn2)cc(-c2ccc(C)cc2)c1 (centres unmarked) [Compound 38, 5-(Ethyl-isobutyryl-amino)-4′-mcthyl-biphenyl-3-carboxylic acid (1-pyrazin-2-yl-ethyl)-amide]	8.11	
COCC(C)NC(=O)c1cc(NC(=O)c2ccc(F)cc2Cl)cc(-c2ccc(C)cc2)c1 (centres unmarked) [Compound 9, 5-(2-Chloro-4-fluoro-benzoylamino)-4′-methyl-biphenyl-3-carboxylic acid (2-methoxy-1-methyl-ethyl)-amide]	5.44	
COCC(C)NC(=O)c1cc(NC(=O)C2CCCCC2)cc(-c2ccc(C)cc2)c1 (centres unmarked) [Compound 7, 5-(Cyclohexanecarbonyl-amino)-4′-methyl-biphenyl-3-carboxylic acid (2-methoxy-1-methyl-ethyl)-amide]	5.49	
Cc1ccc(-c2cc(C(=O)NC(C)c3cnccn3)cc(N(C)C(=O)C(C)C)c2)c(Cl)c1 (centres unmarked) [Compound 54, 2′-Chloro-5-(isobutyryl-methyl-amino)-4′-methyl-biphenyl-3-carboxylic acid (1-pyrazin-2-yl-ethyl)-amide]	6.29	
CCNC(=O)N(C)c1cc(C(=O)NC(C)c2cnccn2)cc(-c2ccc(Cl)cc2)c1 (centres unmarked) [Compound 45, 4′-Chloro-5-(3-ethyl-1-methyl-ureido)-biphenyl-3-carboxylic acid (1-pyrazin-2-yl-ethyl)-amide]	5.38	
COCC(C)NC(=O)c1cc(NC(=O)c2cc(C)on2)cc(-c2ccc(C)cc2)c1 (centres unmarked) [Compound 16, 5-Methyl-isoxazole-3-carboxylic acid [5-(2-methoxy-1-methyl-ethylcarbamoyl)-4′-methyl-biphenyl-3-yl]-amide]	5.4	
COCC(C)NC(=O)c1cc(NC(=O)c2cc(C)cs2)cc(-c2ccc(C)cc2)c1 (centres unmarked) [Compound 1, 4-Methyl-thiophene-2-carboxylic acid [5-(2-methoxy-1-methyl-ethylcarbamoyl)-4′-methyl-biphenyl-3-yl]-amide]	6.31	
CCN(C(=O)COC)c1cc(C(=O)NC(C)c2cnccn2)cc(-c2ccc(C)cc2)c1 (centres unmarked) [Compound 23, 5-[Ethyl-(2-methoxy-acetyl)-amino]-4′-methyl-biphenyl-3-carboxylic acid (1-pyrazin-2-yl-ethyl)-amide]	6.5	
COCC(C)NC(=O)c1cc(NC(=O)c2c(-c3ccccc3)noc2C)cc(-c2ccc(C)cc2)c1 (centres unmarked) [Compound 12, 5-Methyl-3-phenyl-isoxazole-4-carboxylic acid [5-(2-methoxy-1-methyl-ethylcarbamoyl)-4′-mcthyl-biphenyl-3-yl]-amide]	5.59	
CCN(C(=O)CC(C)C)c1cc(C(=O)NC(C)c2cnccn2)cc(-c2ccc(C)cc2)c1 (centres unmarked) [Compound 29, 5-[Ethyl-(3-methyl-butyryl)-amino]-4′-methyl-biphenyl-3-carboxylic acid (1-pyrazin-2-yl-ethyl)-amide]	7.38	
Cc1ccc(-c2cc(NC(=O)C(C)C)cc(C(=O)NC(C)c3cnccn3)c2)cc1 (centres unmarked) [Compound 42, 5-Isobutyrylamino-4′-methyl-biphenyl-3-carboxylic acid (1-pyrazin-2-yl-ethyl)-amide]	5.53	
CC(C)C(=O)N(C)c1cc(C(=O)N[C@@H](C)CO)cc(-c2ccc(Cl)cn2)c1 [Compound 69, 3-(5-Chloro-pyridin-2-yl)-N-((S)-2-hydroxy-1-methyl-ethyl)-5-(isobutyryl-methyl-amino)-benzamide]	6.86	
Cc1ccc(-c2cc(C(=O)NC(C)c3cnccn3)cc(N(C)C(=O)C3CC3)c2)cc1 (centres unmarked) [Compound 34, 5-(Cyclopropanecarbonyl-methyl-amino)-4′-methyl-biphenyl-3-carboxylic acid (1-pyrazin-2-yl-ethyl)-amide]		10.7 nM
Cc1ccc(-c2cc(C(=O)N[C@@H](C)CO)cc(N(C)C(=O)C3CCCC3)c2)cc1 [Compound 50, 5-(Cyclopentanecarbonyl-methyl-amino)-4′-methyl-biphenyl-3-carboxylic acid ((S)-2-hydroxy-1-methyl-ethyl)-amide]	7.85	
Cc1ccc(-c2cc(C(=O)NC(C)c3cnccn3)cc(N(C)C(=O)C3CCCCC3)c2)cc1 (centres unmarked) [Compound 52, 5-(Cyclohexanecarbonyl-methyl-amino)-4′-methyl-biphenyl-3-carboxylic acid (1-pyrazin-2-yl-ethyl)-amide]	5.9	
COCC(C)NC(=O)c1cc(NC(=O)c2cscn2)cc(-c2ccc(C)cc2)c1 (centres unmarked) [Compound 11, Thiazole-4-carboxylic acid [5-(2-methoxy-1-methyl-ethylcarbamoyl)-4′-methyl-biphenyl-3-yl]-amide]	5.56	
CCN(C(=O)c1ccncc1)c1cc(C(=O)NC(C)COC)cc(-c2ccc(C)cc2)c1 (centres unmarked) [Compound 28, N-Ethyl-N-[5-(2-methoxy-1-methyl-ethylcarbamoyl)-4′-methyl-biphenyl-3-yl]-isonicotinamide]	5.4	
Cc1ccc(-c2cc(C(=O)NC(C)c3cnccn3)cc(N(C)C(=O)C3CCCC3)c2)cc1 (centres unmarked) [Compound 51, 5-(Cyclopentanecarbonyl-methyl-amino)-4′-methyl-biphenyl-3-carboxylic acid (1-pyrazin-2-yl-ethyl)-amide]	7.57	
COCC(C)NC(=O)c1cc(NC(=O)c2ccco2)cc(-c2ccc(C)cc2)c1 (centres unmarked) [Compound 3, Furan-2-carboxylic acid [5-(2-methoxy-1-methyl-ethylcarbamoyl)-4′-methyl-biphenyl-3-yl]-amide]	5.66	
CCN(C(=O)OCC(C)C)c1cc(C(=O)NC(C)c2cnccn2)cc(-c2ccc(C)cc2)c1 (centres unmarked) [Compound 35, Ethyl-[4′-methyl-5-(1-pyrazin-2-yl-ethylcarbamoyl)-biphenyl-3-yl]-carbamic acid isobutyl ester]	6.82	
Cc1ccc(-c2cc(C(=O)NC(C)c3cnccn3)cc(N(C)C(=O)c3snnc3C)c2)cc1 (centres unmarked) [Compound 36, 4-Methyl-[1,2,3]thiadiazole-5-carboxylic acid methyl-[4′-methyl-5-(1-pyrazin-2-yl-ethylcarbamoyl)-biphenyl-3-yl]-amide]	5.3	
CC(=O)N1CCC(C(=O)N(C)c2cc(C(=O)NC(C)c3cnccn3)cc(-c3ccc(C)cc3)c2)CC1 (centres unmarked) [Compound 61, 1-Acetyl-piperidine-4-carboxylic acid methyl-[4′-mcthyl-5-(1-pyrazin-2-yl-ethylcarbamoyl)-biphenyl-3-yl]-amide]	5.7	
CCC(=O)N(C)c1cc(C(=O)N[C@H](C)CN2CCOCC2)cc(-c2ccc(C)cc2)c1 [Compound 19, 4′-Methyl-5-(methyl-propionyl-amino)-biphenyl-3-carboxylic acid ((R)-1-methyl-2-morpholin-4-yl-ethyl)-amide]	6.88	
CCC(C)C(=O)N(C)c1cc(C(=O)NC(C)c2cnccn2)cc(-c2ccc(C)cc2)c1 (centres unmarked) [Compound 46, 4′-Methyl-5-[methyl-(2-methyl-butyryl)-amino]-biphenyl-3-carboxylic acid (1-pyrazin-2-yl-ethyl)-amide]	8.04	
